Data as given in the NIST ThermoML archive (doi:10.1021/je060200b).
± gives the expanded uncertainty stated by the source.

Assay: xn = mol fraction of the nth substance listed
Conditions: 101 kPa, Liquid; for speed of sound: Pulse-echo method; for mass density: Vibrating tube method

BrCCCCCBr [1,5-dibromopentane] + CCCCCCC
Conditions | mass density [kg/m3] | speed of sound [m/s]
292.38 K, x1 = 1 | – | 1149.5 ± 1.2
292.52 K, x1 = 0.1006 | 779.97 ± 0.21 | –
292.52 K, x1 = 0.1994 | 875.92 ± 0.28 | –
292.52 K, x1 = 0.3003 | 975.53 ± 0.39 | –
292.52 K, x1 = 0.4008 | 1075.8 ± 0.51 | –
292.52 K, x1 = 0.5004 | 1176.68 ± 0.64 | –
292.52 K, x1 = 0.5999 | 1278.62 ± 0.62 | –
292.52 K, x1 = 0.6995 | 1381.6 ± 0.65 | –
292.52 K, x1 = 0.8002 | 1487.16 ± 0.7 | –
292.52 K, x1 = 0.899 | 1591.59 ± 0.79 | –
292.52 K, x1 = 1 | 1699.54 ± 0.91 | –
292.56 K, x1 = 0.4 | – | 1103.5 ± 0.86
292.59 K, x1 = 0.5001 | – | 1104.2 ± 0.91
292.65 K, x1 = 0.2 | – | 1116.5 ± 0.8
292.68 K, x1 = 0.3001 | – | 1107.2 ± 0.83
292.73 K, x1 = 0.7999 | – | 1126.3 ± 1.1
292.75 K, x1 = 0.8998 | – | 1137.3 ± 1.1
292.76 K, x1 = 0.6 | – | 1108.4 ± 0.96
292.8 K, x1 = 0.6997 | – | 1116.2 ± 1
292.83 K, x1 = 0.1 | – | 1131.1 ± 0.79
298.05 K, x1 = 0.1006 | 775.18 ± 0.21 | –
298.05 K, x1 = 0.1994 | 870.87 ± 0.28 | –
298.05 K, x1 = 0.3003 | 969.84 ± 0.38 | –
298.05 K, x1 = 0.4008 | 1070.23 ± 0.51 | –
298.05 K, x1 = 0.5004 | 1170.91 ± 0.63 | –
298.05 K, x1 = 0.5999 | 1272.47 ± 0.62 | –
298.05 K, x1 = 0.6995 | 1375.26 ± 0.64 | –
298.05 K, x1 = 0.8002 | 1480.47 ± 0.7 | –
298.05 K, x1 = 0.899 | 1584.66 ± 0.79 | –
298.05 K, x1 = 1 | 1691.87 ± 0.91 | –
298.37 K, x1 = 1 | – | 1133 ± 1.2
298.59 K, x1 = 0.5001 | – | 1084.5 ± 0.89
298.62 K, x1 = 0.4 | – | 1082.8 ± 0.85
298.63 K, x1 = 0.2 | – | 1093.8 ± 0.78
298.67 K, x1 = 0.3001 | – | 1085.7 ± 0.81
298.73 K, x1 = 0.8998 | – | 1120.2 ± 1.1
298.76 K, x1 = 0.7999 | – | 1108.6 ± 1.1
298.77 K, x1 = 0.6 | – | 1089.6 ± 0.94
298.8 K, x1 = 0.6997 | – | 1098.1 ± 1
298.83 K, x1 = 0.1 | – | 1106.8 ± 0.76
303.06 K, x1 = 0.1006 | 770.79 ± 0.21 | –
303.06 K, x1 = 0.1994 | 866 ± 0.28 | –
303.06 K, x1 = 0.3003 | 964.71 ± 0.38 | –
303.06 K, x1 = 0.4008 | 1064.63 ± 0.5 | –
303.06 K, x1 = 0.5004 | 1165.02 ± 0.63 | –
303.06 K, x1 = 0.5999 | 1266.37 ± 0.62 | –
303.06 K, x1 = 0.6995 | 1368.9 ± 0.64 | –
303.06 K, x1 = 0.8002 | 1474.36 ± 0.7 | –
303.06 K, x1 = 0.899 | 1578.04 ± 0.79 | –
303.06 K, x1 = 1 | 1684.89 ± 0.9 | –
303.39 K, x1 = 1 | – | 1119.3 ± 1.2
303.59 K, x1 = 0.2 | – | 1075.1 ± 0.77
303.63 K, x1 = 0.3001 | – | 1068 ± 0.8
303.64 K, x1 = 0.4 | – | 1065.8 ± 0.84
303.64 K, x1 = 0.5001 | – | 1068.3 ± 0.89
303.67 K, x1 = 0.8998 | – | 1106.3 ± 1.1
303.71 K, x1 = 0.7999 | – | 1094.2 ± 1.1
303.72 K, x1 = 0.6 | – | 1074.2 ± 0.94
303.78 K, x1 = 0.6997 | – | 1083.1 ± 1
303.86 K, x1 = 0.1 | – | 1086.5 ± 0.76
308.08 K, x1 = 0.1006 | 766.31 ± 0.21 | –
308.08 K, x1 = 0.1994 | 861.23 ± 0.28 | –
308.08 K, x1 = 0.3003 | 959.36 ± 0.38 | –
308.08 K, x1 = 0.4008 | 1058.93 ± 0.5 | –
308.08 K, x1 = 0.5004 | 1159.11 ± 0.63 | –
308.08 K, x1 = 0.5999 | 1260.5 ± 0.62 | –
308.08 K, x1 = 0.6995 | 1362.98 ± 0.64 | –
308.08 K, x1 = 0.8002 | 1467.91 ± 0.69 | –
308.08 K, x1 = 0.899 | 1571.77 ± 0.78 | –
308.08 K, x1 = 1 | 1678.03 ± 0.9 | –
308.38 K, x1 = 1 | – | 1105.8 ± 1.2
308.55 K, x1 = 0.2 | – | 1056.4 ± 0.77
308.58 K, x1 = 0.4 | – | 1049.1 ± 0.84
308.58 K, x1 = 0.5001 | – | 1052.4 ± 0.88
308.67 K, x1 = 0.3001 | – | 1050 ± 0.8
308.67 K, x1 = 0.8998 | – | 1092.3 ± 1.1
308.69 K, x1 = 0.6 | – | 1058.9 ± 0.94
308.7 K, x1 = 0.7999 | – | 1079.8 ± 1.1
308.82 K, x1 = 0.6997 | – | 1068.1 ± 1
308.84 K, x1 = 0.1 | – | 1066.7 ± 0.75
314.36 K, x1 = 1 | – | 1089.7 ± 1.2
314.52 K, x1 = 0.5001 | – | 1033.4 ± 0.87
314.54 K, x1 = 0.3001 | – | 1029.3 ± 0.78
314.61 K, x1 = 0.2 | – | 1033.8 ± 0.75
314.66 K, x1 = 0.1006 | 760.22 ± 0.21 | –
314.66 K, x1 = 0.1994 | 854.58 ± 0.28 | –
314.66 K, x1 = 0.3003 | 952.58 ± 0.38 | –
314.66 K, x1 = 0.4008 | 1052 ± 0.5 | –
314.66 K, x1 = 0.5004 | 1151.72 ± 0.63 | –
314.66 K, x1 = 0.5999 | 1252.55 ± 0.61 | –
314.66 K, x1 = 0.6995 | 1354.65 ± 0.63 | –
314.66 K, x1 = 0.8002 | 1459.75 ± 0.69 | –
314.66 K, x1 = 0.899 | 1562.81 ± 0.78 | –
314.66 K, x1 = 1 | 1668.75 ± 0.89 | –
314.67 K, x1 = 0.4 | – | 1028.8 ± 0.82
314.68 K, x1 = 0.7999 | – | 1062.8 ± 1.1
314.7 K, x1 = 0.8998 | – | 1075.6 ± 1.1
314.75 K, x1 = 0.6 | – | 1040.2 ± 0.93
314.82 K, x1 = 0.6997 | – | 1050.3 ± 0.99
314.83 K, x1 = 0.1 | – | 1042.8 ± 0.72
